Laboratory results published in patent publication US8288424B2, “Substituted tetrahydroimidazopyridine compounds and the use thereof in the treatment of pain and other conditions” (Gruenenthal GmbH, priority 2008, dated 2012).
pEC50: −log10 of the molar value.

The compounds below were run against T1, KCNQ2/3 channels (Homo sapiens, UniProt O43525+O43526) (assay: Fluorescence assay using a voltage-sensitive dye). Settings: 10 μmol test substance; CHO-K1 cells expressing KCNQ2/3 channels; agonistic activity; read-out: % Stimulation [10 μmol] Average.
T1 construct: expressed in transfected cells; host or cells: CHO-K1
Type: cell-based
Outline: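 CHO-K1 cells expressing KCNQ2/3 loaded with membrane-potential dye in ES buffer (1 mM KCl, pH 7.4), compound 30 min at room temperature, then KCl added (final 92 mM). Fluorescence (ex 525/em 560 nm) read before (F1) and at peak after (F2) KCl; agonism from F2/F1 change versus buffer controls, EC50 calculated.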

Going from `COc1c(C)cc(C2CCc3nc(C(=O)NCc4cccc(C(F)(F)F)c4)cn3C2)cc1C` (stereo not shown) [Compound 17, 6-(4-Methoxy-3,5-dimethylphenyl)-N-(3-(trifluoromethyl)benzyl)-5,6,7,8-tetrahydroimidazo[1,2-a]pyridine-2-carboxamide] to `COc1ccc(N2CCN(C(=O)c3cn4c(n3)CCC(c3cc(C)c(OC)c(C)c3)C4)CC2)cc1` (stereo not shown) [Compound 44, (6-(4-Methoxy-3,5-dimethylphenyl)-5,6,7,8-tetrahydroimidazo[1,2-a]pyridin-2-yl)(4-(4-methoxyphenyl)piperazin-1-yl)methanone], the activation at 10 µM rises from 18.5% to 27.5%.

First: Cc1cccc(C2CCc3nc(C(=O)N4CCC(Cc5ccccc5)CC4)cn3C2)c1 (stereo not shown) [Compound 70, (4-Benzylpiperidin-1-yl)(6-m-tolyl-5,6,7,8-tetrahydroimidazo[1,2-a]pyridin-2-yl)methanone]
Second: Cc1ccccc1C1CCc2nc(C(=O)N3CCCC3)cn2C1 (stereo not shown) [Compound 34, Pyrrolidin-1-yl(6-o-tolyl-5,6,7,8-tetrahydroimidazo[1,2-a]pyridin-2-yl)methanone]
The activation at 10 µM of the first is higher: 123% for the first, 32.2% for the second.

First: O=C(c1cn2c(n1)CCC(c1cccc(F)c1)C2)N1CCN(c2cccc(C(F)(F)F)c2)CC1 (stereo not shown) [Compound 48, (6-(3-Fluorophenyl)-5,6,7,8-tetrahydroimidazo[1,2-a]pyridin-2-yl)(4-(3-(trifluoromethyl)phenyl)piperazin-1-yl)methanone]
Second: COc1ccc(C2CCc3nc(C(=O)N4CCCC4)cn3C2)c(OC)c1 (stereo not shown) [Compound 33, (6-(2,4-Dimethoxyphenyl)-5,6,7,8-tetrahydroimidazo[1,2-a]pyridin-2-yl)(pyrrolidin-1-yl)methanone]
The activation at 10 µM of the first is higher: 33% for the first, 24.5% for the second.

`Cc1cc(C)cc(C(C)NC(=O)c2cn3c(n2)CCC(c2ccc(F)c(C)c2)C3)c1` (stereo not shown) [Compound 78, N-(1-(3,5-Dimethylphenyl)ethyl)-6-(4-fluoro-3-methylphenyl)-5,6,7,8-tetrahydroimidazo[1,2-a]pyridine-2-carboxamide] showed an activation at 10 µM of 29.7%.

Same assay, conditions: CHO-K1 cells expressing KCNQ2/3 channels; agonistic activity

`CC1CCN(C(=O)c2cn3c(n2)CCC(c2ccc(Oc4ccccc4)cc2)C3)CC1` (stereo not shown) [Compound 21, (4-Methylpiperidin-1-yl)(6-(4-phenoxyphenyl)-5,6,7,8-tetrahydroimidazo[1,2-a]pyridin-2-yl)methanone] and `O=C(c1cn2c(n1)CCC(c1ccccc1)C2)N1CCN(c2cccc(C(F)(F)F)c2)CC1` (stereo not shown) [Compound 53, (6-Phenyl-5,6,7,8-tetrahydroimidazo[1,2-a]pyridin-2-yl)(4-(3-(trifluoromethyl)phenyl)piperazin-1-yl)methanone] are the same in pEC50: 5.08 for the first, 5.08 for the second.

`COc1ccc(CCNC(=O)c2cn3c(n2)CCC(c2ccc(Oc4ccccc4)cc2)C3)cc1OC` (stereo not shown) [Compound 27, N-(3,4-Dimethoxyphenethyl)-6-(4-phenoxyphenyl)-5,6,7,8-tetrahydroimidazo[1,2-a]pyridine-2-carboxamide] was tested, and the pEC50 was 5.20.
